Values belong to the molecule of their own block, whether it stands above or below them. The source made the active and inactive calls. No cut-off for these calls is given here.
How the values were obtained:
[1] = system: U-87 MG; assay: Antiproliferative activity against human U-87 MG cells assessed as reduction in cell viability incubated for 72 hrs by PrestoBlue cell viability assay
[2] = species on record: Homo sapiens; assay: Inhibition of PKA (unknown origin) assessed as residual activity at 10 uM relative to control
[3] = system: U-87 MG; assay: Induction of cell cycle arrest in human U-87 MG cells assessed as accumulation of cell at G1 phase at IC50 concentration incubated for 72 hrs by propidium iodide/RNase staining based flow cytometry (reference value: 55.0 %); type: functional, U-87MG ATCC
[4] = system: T98G; assay: Antiproliferative activity against human T98G cells assessed as reduction in cell viability incubated for 24 hrs by PrestoBlue cell viability assay
[5] = system: T98G; assay: Antiproliferative activity against human T98G cells assessed as reduction in cell viability incubated for 72 hrs by PrestoBlue cell viability assay
[6] = system: U-251; assay: cells; conditions: Homo sapiens, U-251, 72 h
Description: Antiproliferative activity against human U-251MG cells assessed as reduction in cell viability incubated for 72 hrs by PrestoBlue cell viability assay

[7] = system: U-87 MG; assay: Induction of cell cycle arrest in human U-87 MG cells assessed as accumulation of cell at sub-G1 phase at IC50 concentration incubated for 72 hrs by propidium iodide/RNase staining based flow cytometry relative to control; type: functional; conditions: U-87MG ATCC
[8] = molecular target: Cyclin-dependent kinase 5 (Homo sapiens) (UniProt Q00535); assay: Inhibition of CDK5 (unknown origin) assessed as residual activity at 10 uM relative to control
[9] = molecular target: RAC-alpha serine/threonine-protein kinase (Homo sapiens) (UniProt P31749); assay: Inhibition of PKBalpha (unknown origin) assessed as residual activity at 10 uM relative to control
[10] = molecular target: Protein kinase C alpha type (Homo sapiens) (UniProt P17252); assay: Inhibition of PKCalpha (unknown origin) assessed as residual activity at 10 uM relative to control
[11] = system: U-251; assay: cells; conditions: Homo sapiens, U-251, 24 h
Description: Antiproliferative activity against human U-251MG cells assessed as reduction in cell viability incubated for 24 hrs by PrestoBlue cell viability assay

[12] = molecular target: RAC-beta serine/threonine-protein kinase (Homo sapiens) (UniProt P31751); assay: Inhibition of PKBbeta (unknown origin) assessed as residual activity at 10 uM relative to control
[13] = system: U-87 MG; assay: Antiproliferative activity against human U-87 MG cells assessed as reduction in cell viability incubated for 48 hrs by PrestoBlue cell viability assay
[14] = system: T98G; assay: Induction of cell cycle arrest in human T98G cells assessed as accumulation of cell at G1 phase at IC50 concentration incubated for 72 hrs by propidium iodide/RNase staining based flow cytometry (reference value: 73.3 %); type: functional
[15] = system: U-87 MG; assay: Antiproliferative activity against human U-87 MG cells assessed as reduction in cell viability incubated for 24 hrs by PrestoBlue cell viability assay
[16] = species on record: Homo sapiens; assay: Inhibition of PKA (unknown origin) at 10 uM
[17] = Inhibition of PKA (unknown origin); parameters: species or system Homo sapiens
[18] = molecular target: Cyclin-dependent kinase 2 (Homo sapiens) (UniProt P24941); assay: Inhibition of CDK2 (unknown origin) assessed as residual activity at 10 uM relative to control
[19] = molecular target: Mitogen-activated protein kinase 1 (Homo sapiens) (UniProt P28482); assay: Inhibition of ERK2 (unknown origin) assessed as residual activity at 10 uM relative to control
[20] = Cytotoxicity against human Astrocyte at 100 uM incubated for 72 hrs by PrestoBlue cell viability assay; type: toxicity, cell-based
[21] = system: T98G; assay: Induction of cell cycle arrest in human T98G cells assessed as accumulation of cell at S phase at IC50 concentration incubated for 72 hrs by propidium iodide/RNase staining based flow cytometry relative to control; type: functional
[22] = system: U-87 MG; assay: Antiproliferative activity against human U-87 MG cells assessed as reduction in cell viability incubated for 24 to 72 hrs by PrestoBlue cell viability assay; type: functional, cell-based; conditions: U-87MG ATCC, time 24-72 hrs
[23] = system: T98G; assay: Antiproliferative activity against human T98G cells assessed as reduction in cell viability at IC50 concentrations incubated for 72 hrs in presence of in BBB model (cocultured with HA, HBVP and HBMEC cells) by PrestoBlue cell viability assay relative to control; type: functional
[24] = molecular target: Mitogen-activated protein kinase 3 (Homo sapiens) (UniProt P27361); assay: Inhibition of ERK1 (unknown origin) assessed as residual activity at 10 uM relative to control
[25] = system: T98G; assay: Antiproliferative activity against human T98G cells assessed as reduction in cell viability at IC50 concentrations incubated for 72 hrs by PrestoBlue cell viability assay relative to control; type: functional
[26] = system: U-251; assay: Induction of cell cycle arrest in human U-251MG cells assessed as accumulation of cell at S phase at IC50 concentration incubated for 72 hrs by propidium iodide/RNase staining based flow cytometry relative to control; type: functional
[27] = system: U-87 MG; assay: Induction of cell cycle arrest in human U-87 MG cells assessed as accumulation of cell at S phase at IC50 concentration incubated for 72 hrs by propidium iodide/RNase staining based flow cytometry relative to control; type: functional, U-87MG ATCC
[28] = Cytotoxicity against human Astrocyte at 10 to 100 uM incubated for 72 hrs by PrestoBlue cell viability assay; type: toxicity, cell-based; conditions: dose 10-100 µM
[29] = system: T98G; assay: Antiproliferative activity against human T98G cells assessed as reduction in cell viability incubated for 48 hrs by PrestoBlue cell viability assay
[30] = system: U-251; assay: Induction of cell cycle arrest in human U-251MG cells assessed as accumulation of cell at G1 phase at IC50 concentration incubated for 72 hrs by propidium iodide/RNase staining based flow cytometry (reference value: 74.8 %); type: functional
[31] = Metabolic stability in human liver microsomes assessed as intrinsic clearance at 10 uM incubated up to 60 mins by HPLC-MS analysis; type: ADME, Microsome; conditions: 1 h
[32] = Metabolic stability in human liver microsomes assessed as half life at 10 uM incubated up to 60 mins by HPLC-MS analysis; type: ADME, Microsome
[33] = system: T98G; assay: Antiproliferative activity against human T98G cells assessed as reduction in cell viability incubated for 24 to 72 hrs by PrestoBlue cell viability assay; type: functional, cell-based; conditions: dose 0.3-300 µM, time 24-72 hrs
[34] = system: U-251; assay: Antiproliferative activity against human U-251MG cells assessed as reduction in cell viability incubated for 24 to 72 hrs by PrestoBlue cell viability assay; type: functional, cell-based; conditions: dose 0.3-300 µM, time 24-72 hrs
[35] = molecular target: Protein kinase C gamma type (Homo sapiens) (UniProt P05129); assay: Inhibition of PKCgamma (unknown origin) assessed as residual activity at 10 uM relative to control
[36] = molecular target: Cyclin-dependent kinase 9 (Homo sapiens) (UniProt P50750); assay: Inhibition of CDK9 (unknown origin) assessed as residual activity at 10 uM relative to control
[37] = system: U-251; assay: cells; conditions: Homo sapiens, U-251, 48 h
Description: Antiproliferative activity against human U-251MG cells assessed as reduction in cell viability incubated for 48 hrs by PrestoBlue cell viability assay

Sequence of RAC-alpha serine/threonine-protein kinase (Homo sapiens) (P31749 whole entry): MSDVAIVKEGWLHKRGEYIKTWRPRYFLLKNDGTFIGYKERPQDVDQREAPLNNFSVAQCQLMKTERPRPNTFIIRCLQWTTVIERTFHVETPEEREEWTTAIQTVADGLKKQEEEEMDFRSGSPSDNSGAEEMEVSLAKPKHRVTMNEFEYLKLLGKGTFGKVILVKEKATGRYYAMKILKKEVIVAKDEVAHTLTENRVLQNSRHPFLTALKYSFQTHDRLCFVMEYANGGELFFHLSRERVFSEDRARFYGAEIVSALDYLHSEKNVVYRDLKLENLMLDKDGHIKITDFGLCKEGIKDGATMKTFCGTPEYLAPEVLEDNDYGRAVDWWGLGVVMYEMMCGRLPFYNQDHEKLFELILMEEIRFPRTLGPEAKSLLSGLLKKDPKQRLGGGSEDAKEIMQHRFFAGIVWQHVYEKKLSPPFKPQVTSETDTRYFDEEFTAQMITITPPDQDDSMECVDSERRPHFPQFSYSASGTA
Sequence of Mitogen-activated protein kinase 3 (Homo sapiens) (P27361 whole entry): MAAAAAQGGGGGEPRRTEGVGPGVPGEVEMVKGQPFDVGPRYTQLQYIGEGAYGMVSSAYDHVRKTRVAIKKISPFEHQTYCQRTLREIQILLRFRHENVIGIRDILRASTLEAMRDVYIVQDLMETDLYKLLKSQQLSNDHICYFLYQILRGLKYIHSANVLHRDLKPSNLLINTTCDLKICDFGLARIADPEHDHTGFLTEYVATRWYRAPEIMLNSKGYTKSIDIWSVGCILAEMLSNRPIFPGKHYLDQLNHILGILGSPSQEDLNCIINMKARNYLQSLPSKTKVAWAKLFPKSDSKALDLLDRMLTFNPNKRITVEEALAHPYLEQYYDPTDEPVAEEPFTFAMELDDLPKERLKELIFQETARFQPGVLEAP
Sequence of RAC-beta serine/threonine-protein kinase (Homo sapiens) (P31751 whole entry): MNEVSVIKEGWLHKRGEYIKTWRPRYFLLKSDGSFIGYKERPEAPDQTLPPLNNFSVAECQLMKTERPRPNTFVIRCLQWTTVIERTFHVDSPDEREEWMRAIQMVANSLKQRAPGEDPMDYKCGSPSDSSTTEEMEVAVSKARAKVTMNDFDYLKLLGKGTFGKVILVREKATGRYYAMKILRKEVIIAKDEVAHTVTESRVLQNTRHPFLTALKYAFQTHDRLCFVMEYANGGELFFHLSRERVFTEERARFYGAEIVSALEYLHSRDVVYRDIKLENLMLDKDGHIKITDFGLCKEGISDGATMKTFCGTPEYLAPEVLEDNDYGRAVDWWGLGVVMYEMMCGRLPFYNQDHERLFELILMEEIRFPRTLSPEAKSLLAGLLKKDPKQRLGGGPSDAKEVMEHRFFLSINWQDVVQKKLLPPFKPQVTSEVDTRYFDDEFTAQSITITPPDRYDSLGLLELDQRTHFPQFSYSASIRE
Sequence of Cyclin-dependent kinase 9 (Homo sapiens) (P50750 whole entry): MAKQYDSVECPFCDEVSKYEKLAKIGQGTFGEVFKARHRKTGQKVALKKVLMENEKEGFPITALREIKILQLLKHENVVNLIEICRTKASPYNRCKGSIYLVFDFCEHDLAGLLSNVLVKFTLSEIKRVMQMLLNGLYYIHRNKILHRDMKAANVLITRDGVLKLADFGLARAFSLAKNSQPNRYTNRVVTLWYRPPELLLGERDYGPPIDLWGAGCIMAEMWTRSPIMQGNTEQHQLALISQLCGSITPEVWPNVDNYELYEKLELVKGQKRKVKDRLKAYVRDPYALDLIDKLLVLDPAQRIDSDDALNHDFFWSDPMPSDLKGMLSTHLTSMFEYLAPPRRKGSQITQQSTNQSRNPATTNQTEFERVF
Sequence of Mitogen-activated protein kinase 1 (Homo sapiens) (P28482 whole entry): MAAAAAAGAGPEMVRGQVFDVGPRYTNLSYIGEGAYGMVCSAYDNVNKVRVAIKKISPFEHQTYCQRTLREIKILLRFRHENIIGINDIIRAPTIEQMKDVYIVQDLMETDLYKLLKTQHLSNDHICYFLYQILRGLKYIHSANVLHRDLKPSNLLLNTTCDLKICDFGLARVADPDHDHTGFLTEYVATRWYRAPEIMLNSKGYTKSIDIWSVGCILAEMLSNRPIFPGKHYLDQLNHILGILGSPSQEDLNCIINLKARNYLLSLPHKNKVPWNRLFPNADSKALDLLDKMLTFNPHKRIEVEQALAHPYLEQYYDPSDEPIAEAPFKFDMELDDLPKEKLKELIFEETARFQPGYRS
Sequence of Cyclin-dependent kinase 5 (Homo sapiens) (Q00535 whole entry, looked up): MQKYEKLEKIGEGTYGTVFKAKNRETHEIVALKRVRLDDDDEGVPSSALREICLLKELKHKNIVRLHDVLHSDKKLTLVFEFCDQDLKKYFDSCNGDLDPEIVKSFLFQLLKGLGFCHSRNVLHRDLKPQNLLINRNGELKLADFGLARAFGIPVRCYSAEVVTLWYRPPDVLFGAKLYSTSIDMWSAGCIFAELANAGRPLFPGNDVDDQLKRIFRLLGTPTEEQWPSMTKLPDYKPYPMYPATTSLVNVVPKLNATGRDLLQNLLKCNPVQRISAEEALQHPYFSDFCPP

IC50 [1]: 3.3 µM
Activity [2]: > 50%
IC50 [6]: 6.1 µM
Activity [8]: > 50%
Activity [9]: > 50%
Activity [10]: > 50%
IC50 [11]: 15.1 µM
Activity [12]: > 50%
IC50 [13]: 4.7 µM
IC50 [15]: 15 µM
inhibition [16]: Active
IC50 [17]: 0.188 µM
Activity [18]: > 50%
Activity [19]: > 50%
Activity [24]: > 50%
CLH [31]: 5.6 µL/min/mg
half-life at 10 µM [32]: 1.68 h
Activity [35]: > 50%
Activity [36]: > 50%
IC50 [37]: 8.3 µM
Structure (SMILES): CC(C)c1ccc(-c2c3cn[nH]c3nc3c2oc2cc(O)ccc23)cc1
Activity [3]: 45.5%
IC50 [4]: 12 µM
IC50 [5]: 6.2 µM
Activity [7]: Active
Activity [14]: 65.8%
Activity [20]: Non-toxic
Activity [21]: 22.3%
Activity [22]: Dose-dependent-effect
Activity [23]: 78%
Activity [25]: 61%
Activity [26]: 15.9%
Activity [27]: 27.8%
Activity [28]: Non-toxic
IC50 [29]: 8.1 µM
Activity [30]: 61.6%
Activity [33]: Dose-dependent-effect
Activity [34]: Dose-dependent-effect

IC50 [1]: 23.6 µM
IC50 [6]: 15.7 µM
IC50 [11]: 51 µM
IC50 [13]: 28.2 µM
IC50 [15]: 36.8 µM
IC50 [37]: 24.9 µM
Structure (SMILES): Cn1sc(=O)n(Cc2ccccc2)c1=O
IC50 [4]: 65.9 µM
IC50 [5]: 41.4 µM
Activity [22]: Dose-dependent-effect
IC50 [29]: 54.4 µM
Activity [33]: Dose-dependent-effect
Activity [34]: Dose-dependent-effect

From ChEMBL document CHEMBL6134858, “Structure-Based Discovery Targeting GSK-3α Reveals Potent Nanomolar Selective 4-Phenyl-1H-benzofuro[3,2-b]pyrazolo[4,3-e]pyridine Inhibitor with Promising Glioblastoma and CNS-Active Potential in Cellular Models” (J Med Chem, 2025)
